Test results reported in the supplement of paper PMC10307832.

Key:
Assay in all cases: relative viability (nuclei count vs DMSO), 5 days (fraction); higher = more cells survive
[1] = compound: C[As](C)SC[C@H](NC(=O)CC[C@H](N)C(=O)O)C(=O)NCC(=O)O [Darinaparsin] + Nc1nc2[nH]cc(CCc3ccc(C(=O)N[C@@H](CCC(=O)O)C(=O)O)cc3)c2c(=O)[nH]1 [Pemetrexed] (partner 0.2 µM)
Method in brief: (§1)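 One day after seeding in 1536-well plates, lung cancer cell lines were dosed by pin tool. Dosing was either single-drug or a fixed anchor-drug dose plus five library-drug doses (not always all listed) in √10 steps. After 5 days, nuclei were stained in one fix-and-stain step and counted on 4× images, and relative viability is the nuclei count of treated wells over that of vehicle wells, given as the median of duplicate plates.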

[2] = compound: CC1=C(C=C(C=C1)NC(=O)C2=CC(=CC=C2)C(C)(C)C#N)NC3=CC4=C(C=C3)N=CN(C4=O)C [AZ628] + CS(=O)(=O)N1CCN(Cc2cc3nc(-c4cccc5[nH]ncc45)nc(N4CCOCC4)c3s2)CC1 [Pictilisib] (partner 1 µM)
Method in brief: as §1

[3] = compound: CC1=C(C=C(C=C1)NC(=O)C2=CC(=CC=C2)C(C)(C)C#N)NC3=CC4=C(C=C3)N=CN(C4=O)C [AZ628] + C[C@]1(O)C[C@@H](c2nc(-c3ccc4ccc(-c5ccccc5)nc4c3)c3c(N)nccn32)C1 [Linsitinib] (partner 1 µM)
Method in brief: as §1

[4] = compound: C[As](C)SC[C@H](NC(=O)CC[C@H](N)C(=O)O)C(=O)NCC(=O)O [Darinaparsin] + CC(=O)c1c(C)c2cnc(Nc3ccc(N4CCNCC4)cn3)nc2n(C2CCCC2)c1=O [Palbociclib] (partner 0.5 µM)
Method in brief: as §1

Cell Line | relative viability ([1]; first compound 0.08 µM) | relative viability ([1]; first compound 0.8 µM) | relative viability ([1]; first compound 2.53 µM) | relative viability ([1]; first compound 8 µM) | relative viability ([2]; first compound 0.08 µM) | relative viability ([2]; first compound 0.253 µM) | relative viability ([2]; first compound 0.8 µM) | relative viability ([2]; first compound 2.53 µM) | relative viability ([2]; first compound 8 µM) | relative viability ([3]; first compound 0.08 µM) | relative viability ([3]; first compound 0.253 µM) | relative viability ([3]; first compound 0.8 µM) | relative viability ([3]; first compound 2.53 µM) | relative viability ([3]; first compound 8 µM) | relative viability ([4]; first compound 0.08 µM) | relative viability ([4]; first compound 0.8 µM) | relative viability ([4]; first compound 2.53 µM) | relative viability ([4]; first compound 8 µM)
PC-14 | 0.134 | 0.131 | 0.128 | 0.143 | 0.617 | 0.627 | 0.738 | 0.808 | 0.237 | 0.946 | 0.862 | 0.946 | 0.981 | 0.703 | 0.661 | 0.53 | 0.365 | 0.462
EPLC-272H | 0.319 | 0.292 | 0.321 | 0.293 | 0.273 | 0.232 | 0.236 | 0.266 | 0.231 | 1.26 | 1.13 | 1.12 | 1.08 | 0.834 | 0.318 | 0.315 | 0.333 | 0.292
NCI-H2228 | 0.379 | 0.322 | 0.325 | 0.427 | 0.397 | 0.32 | 0.368 | 0.329 | 0.264 | 0.504 | 0.686 | 0.622 | 1.1 | 0.517 | 0.805 | 0.881 | 0.419 | 0.998
LC-2-ad | 0.283 | 0.272 | 0.27 | 0.289 | 0.472 | 0.344 | 0.122 | 0.261 | 0.162 | 0.882 | 0.829 | 0.883 | 0.832 | 0.486 | 0.554 | 0.523 | 0.383 | 0.602
HOP-62 | 0.421 | 0.36 | 0.276 | 0.361 | 0.607 | 0.6 | 0.511 | 0.441 | 0.211 | 1.09 | 0.919 | 1.06 | 1.17 | 0.535 | 0.541 | 0.411 | 0.385 | 0.593
UMC-11 | 0.884 | 0.863 | 0.778 | 0.878 | 0.976 | 0.805 | 0.845 | 0.752 | 0.76 | 1.02 | 1.12 | 1.03 | 0.976 | 1.02 | 0.309 | 0.342 | 0.295 | 0.345
Calu-6 | – | – | – | – | 0.896 | 0.64 | 0.409 | 0.553 | 0.144 | 1.05 | 0.859 | 0.401 | 0.673 | 0.153 | – | – | – | –
HCC-44 | 0.7 | 0.607 | 0.669 | 0.721 | 0.547 | 0.512 | 0.427 | 0.354 | 0.286 | 0.701 | 0.646 | 0.672 | 0.678 | 0.666 | 1.04 | 0.916 | 1.02 | 1
NCI-H727 | – | – | – | – | 0.314 | 0.199 | 0.184 | 0.281 | 0.28 | 0.194 | 0.2 | 0.225 | 0.282 | 0.201 | 0.692 | 0.573 | 0.698 | 0.585
A-427 | 1.06 | 0.934 | 1.1 | 1.02 | 0.43 | 0.364 | 0.333 | 0.177 | 0.132 | 1 | 0.898 | 0.839 | 0.857 | 0.496 | 0.585 | 0.494 | 0.567 | 0.549
SK-MES-1 | 1.17 | 0.924 | 0.924 | 1.12 | 0.337 | 0.372 | 0.28 | 0.327 | 0.329 | 0.98 | 1.06 | 0.939 | 1.03 | 0.637 | 0.308 | 0.303 | 0.298 | 0.314
HCC-827 | 0.256 | 0.268 | 0.254 | 0.263 | 0.98 | 0.994 | 0.988 | 0.984 | 0.826 | 0.979 | 1.01 | 1.01 | 0.973 | 0.918 | 0.514 | 0.519 | 0.414 | 0.477
EKVX | 0.458 | 0.385 | 0.388 | 0.412 | 0.487 | 0.489 | 0.471 | 0.472 | 0.333 | 1.18 | 0.922 | 1 | 1.03 | 0.824 | 0.451 | 0.365 | 0.366 | 0.38
SW 900 | 0.402 | – | 0.481 | 0.517 | – | – | – | – | – | – | – | – | – | – | 0.55 | – | 0.59 | 0.655
NCI-H661 | 0.915 | 0.922 | 0.921 | 1.02 | 0.401 | 0.312 | 0.302 | 0.353 | 0.331 | 0.474 | 0.523 | 0.49 | 0.517 | 0.443 | 0.385 | 0.355 | 0.442 | 0.404
NCI-H1975 | 0.328 | 0.301 | 0.291 | 0.319 | 0.309 | 0.285 | 0.29 | 0.277 | 0.206 | 0.908 | 0.949 | 0.895 | 0.904 | 0.647 | 0.693 | 0.634 | 0.504 | 0.606
NCI-H1944 | 0.663 | 0.687 | 0.649 | 0.57 | 0.359 | 0.321 | 0.322 | 0.29 | 0.321 | 1.21 | 1.14 | 0.987 | 0.876 | 0.703 | 0.314 | 0.339 | 0.31 | 0.404
SK-LU-1 | 1.21 | 0.942 | 0.787 | 1.18 | 0.429 | 0.375 | 0.534 | 0.467 | 0.373 | 0.728 | 1 | 0.907 | 1.07 | 0.901 | 0.381 | 0.338 | 0.339 | 0.347
NCI-H1755 | 0.552 | 0.389 | 0.411 | 0.656 | 0.378 | 0.346 | 0.29 | 0.275 | 0.203 | 0.993 | 0.956 | 0.941 | 0.937 | 0.883 | 0.483 | 0.457 | 0.46 | 0.469
